Data: patent publication US8846103B2, “Exogenously triggered controlled release materials and uses thereof” (SmartCells, Inc., priority 2009, dated 2014)

What was measured:
non-diabetic SD rats = type: in vivo, Sprague Dawley (SD) rats
Protocol: FIG. 3: (a) Plot of (♦) serum insulin and (◯) blood glucose levels following subcutaneous injection in non-diabetic SD rats at time 0 with TSB-C4-AEBM-2-insulin/native Con A (an α-methyl mannose-responsive material). An i.p. injection of α-methyl mannose was administered at 120 min as indicated by the *.
0.300 ml of the formulation prepared in Example 1 was injected subcutaneously into each of three normal male Sprague Dawley (SD) rats (Charles River Laboratories, Wilmington, Mass.) weighing between 400 and 500 g. Prior to formulation injection, blood glucose values were measured via tail vein bleeding using a Precision Xtra glucometer (Abbott Laboratories, Alameda, Calif.) and approximately 100 ul of serum was obtained via tail vein bleeding to assay for background insulin levels. Food was removed from the rat cages during the duration of the study. Serum and blood glucose values were obtained at 30 min, 60 min, 90 min, and 120 min post-injection. At 120 min after the injection, an intraperitoneal injection of a 25% w/v α-methyl-mannose solution was injected to provide a 2 g/kg dose after which serum and blood glucose values were obtained at 135 min, 150 min, 180 min, 210 min, 240 min, and 300 min.

concanavalin A (Con A) = concanavalin A (Con A) (Canavalia ensiformis, UniProt P02866); details: higher affinity than glucose; cited from earlier work

| Compound | conjugate release at physiologically normal blood glucose levels (background release) (non-diabetic SD rats; rat, in vivo, sc) | response to exogenous α-methyl-mannose (non-diabetic SD rats; summary statement on Examples 1-2) | affinity for Con A relative to endogenous glucose (concanavalin A (Con A)) |
| --- | --- | --- | --- |
| exemplary conjugate with two AEBM affinity ligands: Conjugate with TSB-C4 as the scaffold, AEBM as the affinity ligand, insulin (conjugated at Phe-B1) as the drug | very little background release | significant response | – |
| COC1O[C@H](CO)[C@@H](O)[C@H](O)[C@@H]1O (stereo partly drawn) [α-methyl-mannose] | – | – | about 40 fold |
